# In patent publication US12065443B2, “Compounds and pharmaceutical compositions thereof for the treatment of diseases” (priority 2017, dated 2024):
# Like-named read-outs stand apart in the source and are kept apart here.
# What was measured:
# [1] = test system: LPS triggered IL-10 secretion in monocyte-derived macrophages (MdM); assay: MdM assay: LPS-triggered IL-10 (ELISA); format: cell-based, human; settings: maximal fold change vs LPS only, median across assays
# Summary of the method: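 CD14+ monocytes isolated from human buffy-coat PBMCs and differentiated to macrophages for 10 days. Cells pre-treated with compound 1 h at 37° C (0.2% DMSO), then stimulated with 200 ng/mL LPS; IL-10 in supernatant at 2 h measured by ELISA (A450). Maximal fold change versus LPS only reported as median of two or more runs.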
# [2] = test system: LPS-induced TNFα secretion in monocyte-derived macrophages (MdM); assay: MdM assay: LPS-triggered TNFα (ELISA); format: cell-based, human; settings: Homo sapiens, Macrophage, LPS-triggered TNFα inhibition
# Summary of the method: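 Human CD14+ monocytes isolated from buffy-coat PBMCs by magnetic beads, differentiated to macrophages; on day 10 compound preincubated 1 h at 37 °C, then LPS 200 ng/mL added (0.2% DMSO). Supernatant taken after 20 h; TNFα quantified by sandwich ELISA against standard curve.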
# [3] = biological target: T1, SIK1 (Homo sapiens, UniProt P57059); assay: biochemical; settings: 33P radioactive SIK kinase assay, AMARA peptide, 10 μM ATP; read-out: SIK1 IC50
# T1 construct: purchased Carna Biosciences 02-131
# Summary of the method: (§1)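 Radiometric assay: SIK1, SIK2 or SIK3 phosphorylates AMARA peptide using unlabelled plus [^33P]-γ-ATP, reaction started by ATP addition. Stopped with 150 mM phosphoric acid, filter-harvested and washed; incorporated ^33P counted by scintillation. Controls: 1% DMSO and 10 μM staurosporine final.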
# [4] = biological target: T2, SIK2 (Homo sapiens, UniProt Q9H0K1); assay: biochemical; settings: 33P radioactive SIK kinase assay, AMARA peptide, 10 μM ATP
# T2 construct: purchased ThermoFisher Scientific PV4792
# Summary of the method: as §1
# [5] = biological target: T3, SIK3 (Homo sapiens, UniProt Q9Y2K2); assay: biochemical
# T3 construct: purchased SignalChem S12-11G-100
# Summary of the method: as §1
# [6] = test system: LPS driven TNFα secretion in Peripheral Blood Mononuclear Cells (PBMC); assay: cells; format: cell-based; settings: Homo sapiens, LPS 1 ng/mL, supernatant after 18-20 h, ELISA
# Description: This assay measures the inhibition of LPS driven TNFα secretion by a test compound in Peripheral Blood Mononuclear Cells (PBMC), which in turn correlates with SIK inhibition.
# PBMCs are isolated from human blood samples (buffy coats). The buffy coat is aseptically transferred into a 50 mL Falcon™ tube, and diluted 1/2 in Phosphate Buffered Saline (PBS). […] The tubes are centrifuged for 35 min at 400× g in temperature controlled centrifuge, without brake, at 25° C. PBMCs are aspirated from the white interface layer between sample and Lymphoprep. PBMCs are washed five times in PBS. […] The PBMCs are finally seeded at 400,000 PBMC/160 μL/96-well.
# A compound dilution plate is made in 100% DMSO by 3-fold dilution of 10 mM stock solution of test compound. An intermediate dilution plate (10× final concentration) is made by diluting the compound dilution plate 50-fold in RPMI medium.
# 20 μL of the 10× final concentration compound is added to the cells and incubated for 1 hour at 37° C. before addition of trigger. No trigger conditions/trigger conditions are spiked with equal final DMSO concentrations of 0.2% DMSO. 20 μL of 10×LPS (final concentration 1 ng/mL) solution are added to all wells except for the ‘no trigger wells’ where 20 μL medium is added. Supernatant is collected after 18-20 h for IL-10 and TNFα determination using ELISA.
# The plate is then washed once with PBST (PBS+0.05% Tween20) and once with PBS followed by the addition of 100 μL of blocking buffer (1% Bovine Serum Albumin (BSA)-5% Sucrose) and plates are sealed and incubated for at least 4 h at RT. After washing the plate once with PBST and once with PBS, 40 μL of standard or sample are added (TNFα standard curve is prepared using a 1/2 serial dilution starting from 16000 pg/mL; dilutions are made in dilution buffer (PBS+1% BSA)). Plates are washed twice with PBST, and once with PBS, after which 35 μL of the detection antibody is added (final concentration 0.25 μg/mL diluted in dilution buffer) and plates are incubated for at least 2 h at RT. Plates are washed twice with PBST, and once with PBS, where after 35 μL of Strep-HRP conjugate (0.5 μg/mL final concentration diluted in dilution buffer) is added. Plates are incubated in the dark, at RT for at least 45 min but no longer than 1 hour. Plates are washed twice with PBST, and once with PBS. Thereafter, 50 μL of luminol substrate is added to each well (prepared according to manufacturer's instructions), and incubated for 5 min at RT protected from light.
# To measure the inhibition of LPS induced TNFα, percentage inhibition (PIN) values are calculated for all concentrations tested, compared to controls.
# PIN values are plotted in concentration-response and EC50 values are derived using GraphPad Prism Software, applying 4-parameter nonlinear regression (sigmoidal) curve fitting.
# [7] = biological target: T1, SIK1; assay: biochemical; settings: ADP-Glo SIK kinase assay
# Summary of the method: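 Enzyme–substrate mix was started with ATP and incubated 120 min at RT. ADP formed was quantified by ADP-Glo: 40 min ATP depletion, then 30 min detection reagent converting ADP to ATP for luciferase luminescence, which rises with kinase activity. Controls: 1% DMSO and 10 μM staurosporine (final).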
# [8] = biological target: T2, SIK2; assay: biochemical; settings: ADP-Glo SIK kinase assay
# Summary of the method: (§2)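 Wells with 1% DMSO or 10 μM staurosporine (final) define the control window. The kinase reaction with substrate and ATP runs 120 min at RT, followed by ADP-Glo detection: ATP depletion (40 min) and ADP-derived luminescence (30 min).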
# [9] = biological target: T3, SIK3; assay: biochemical; settings: ADP-Glo SIK kinase assay
# Summary of the method: as §2
# T3 sequence (Q9Y2K2 whole entry): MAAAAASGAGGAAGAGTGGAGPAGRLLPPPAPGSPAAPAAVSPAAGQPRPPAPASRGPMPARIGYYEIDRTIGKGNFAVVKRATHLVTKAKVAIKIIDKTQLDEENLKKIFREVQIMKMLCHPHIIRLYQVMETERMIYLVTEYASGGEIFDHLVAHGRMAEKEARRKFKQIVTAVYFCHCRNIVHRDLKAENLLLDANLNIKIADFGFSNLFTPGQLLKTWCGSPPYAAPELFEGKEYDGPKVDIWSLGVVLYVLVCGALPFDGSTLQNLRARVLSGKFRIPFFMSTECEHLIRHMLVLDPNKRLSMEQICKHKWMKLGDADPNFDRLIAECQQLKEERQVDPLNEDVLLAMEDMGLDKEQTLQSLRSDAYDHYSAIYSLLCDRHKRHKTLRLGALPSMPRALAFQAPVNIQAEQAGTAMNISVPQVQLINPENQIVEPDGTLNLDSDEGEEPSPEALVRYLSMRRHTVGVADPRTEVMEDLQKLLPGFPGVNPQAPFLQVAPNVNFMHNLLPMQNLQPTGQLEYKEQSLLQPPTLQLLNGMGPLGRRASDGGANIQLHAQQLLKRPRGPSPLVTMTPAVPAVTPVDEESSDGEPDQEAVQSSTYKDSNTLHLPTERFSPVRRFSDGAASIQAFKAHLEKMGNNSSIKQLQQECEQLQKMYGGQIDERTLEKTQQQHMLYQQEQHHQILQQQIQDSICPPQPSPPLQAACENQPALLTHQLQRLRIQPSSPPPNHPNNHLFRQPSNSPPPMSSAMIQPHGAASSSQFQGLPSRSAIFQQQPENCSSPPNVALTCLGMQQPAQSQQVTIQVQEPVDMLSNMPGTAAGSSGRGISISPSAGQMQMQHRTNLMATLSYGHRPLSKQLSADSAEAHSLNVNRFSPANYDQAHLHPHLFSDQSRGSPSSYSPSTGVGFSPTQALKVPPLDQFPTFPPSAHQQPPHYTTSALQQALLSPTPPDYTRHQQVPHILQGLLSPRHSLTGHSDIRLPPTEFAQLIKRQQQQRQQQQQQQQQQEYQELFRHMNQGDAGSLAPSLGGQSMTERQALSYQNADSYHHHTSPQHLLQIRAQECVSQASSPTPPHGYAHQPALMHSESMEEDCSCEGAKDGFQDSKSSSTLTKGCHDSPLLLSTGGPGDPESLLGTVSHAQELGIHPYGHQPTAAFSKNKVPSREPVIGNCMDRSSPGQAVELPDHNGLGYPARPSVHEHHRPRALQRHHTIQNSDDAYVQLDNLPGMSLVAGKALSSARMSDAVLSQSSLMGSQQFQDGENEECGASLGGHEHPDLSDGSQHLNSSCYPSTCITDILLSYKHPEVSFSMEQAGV
# T2 sequence (Q9H0K1 whole entry): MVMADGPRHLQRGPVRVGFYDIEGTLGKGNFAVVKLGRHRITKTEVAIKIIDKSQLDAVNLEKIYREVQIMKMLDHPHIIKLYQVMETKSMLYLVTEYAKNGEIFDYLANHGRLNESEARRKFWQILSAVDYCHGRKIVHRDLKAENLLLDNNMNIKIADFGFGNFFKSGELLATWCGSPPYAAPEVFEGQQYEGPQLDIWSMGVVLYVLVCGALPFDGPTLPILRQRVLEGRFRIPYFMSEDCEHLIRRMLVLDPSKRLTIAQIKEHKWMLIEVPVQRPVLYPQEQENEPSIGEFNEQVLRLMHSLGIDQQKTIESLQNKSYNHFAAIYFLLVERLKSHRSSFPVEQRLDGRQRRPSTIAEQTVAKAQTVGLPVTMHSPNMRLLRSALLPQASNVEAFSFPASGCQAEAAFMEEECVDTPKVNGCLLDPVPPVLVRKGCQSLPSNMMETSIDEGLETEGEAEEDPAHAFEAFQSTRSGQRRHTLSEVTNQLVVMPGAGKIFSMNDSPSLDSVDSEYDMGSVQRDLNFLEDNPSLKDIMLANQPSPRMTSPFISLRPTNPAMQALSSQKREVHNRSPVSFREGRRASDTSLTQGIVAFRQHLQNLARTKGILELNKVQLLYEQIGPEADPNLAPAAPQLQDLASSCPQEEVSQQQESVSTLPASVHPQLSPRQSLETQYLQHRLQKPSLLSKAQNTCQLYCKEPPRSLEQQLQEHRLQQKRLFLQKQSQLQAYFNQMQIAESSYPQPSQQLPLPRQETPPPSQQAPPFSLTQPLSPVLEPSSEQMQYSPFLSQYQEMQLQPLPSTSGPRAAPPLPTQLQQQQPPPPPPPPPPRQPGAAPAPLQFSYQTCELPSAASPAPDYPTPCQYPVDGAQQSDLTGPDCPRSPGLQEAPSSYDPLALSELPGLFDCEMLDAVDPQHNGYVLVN
# T1 sequence (P57059 whole entry): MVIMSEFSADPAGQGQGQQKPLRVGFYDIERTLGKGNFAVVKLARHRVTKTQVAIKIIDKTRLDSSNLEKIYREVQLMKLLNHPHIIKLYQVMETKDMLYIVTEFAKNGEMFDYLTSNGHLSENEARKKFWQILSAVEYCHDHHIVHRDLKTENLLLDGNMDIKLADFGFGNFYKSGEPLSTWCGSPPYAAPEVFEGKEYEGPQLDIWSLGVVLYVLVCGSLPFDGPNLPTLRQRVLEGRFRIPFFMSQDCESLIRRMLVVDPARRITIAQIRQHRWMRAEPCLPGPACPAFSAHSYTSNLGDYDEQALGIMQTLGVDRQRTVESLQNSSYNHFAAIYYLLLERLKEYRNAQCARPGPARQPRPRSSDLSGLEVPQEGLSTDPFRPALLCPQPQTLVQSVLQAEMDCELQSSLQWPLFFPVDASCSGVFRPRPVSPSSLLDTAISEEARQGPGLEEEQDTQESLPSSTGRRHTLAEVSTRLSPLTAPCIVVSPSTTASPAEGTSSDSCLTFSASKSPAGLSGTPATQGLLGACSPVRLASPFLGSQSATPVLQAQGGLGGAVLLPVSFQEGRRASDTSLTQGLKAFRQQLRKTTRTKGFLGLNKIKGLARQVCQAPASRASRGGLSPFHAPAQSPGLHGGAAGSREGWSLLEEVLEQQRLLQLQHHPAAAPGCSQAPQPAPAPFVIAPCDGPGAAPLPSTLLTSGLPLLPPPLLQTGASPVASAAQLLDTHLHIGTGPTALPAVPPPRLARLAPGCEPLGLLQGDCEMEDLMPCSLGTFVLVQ
Compound,IL-10 FCmax median [1],EC50 [2] [nM],IC50 [3] [nM],IC50 [4] [nM],IC50 [5] [nM],EC50 [6] [nM],IC50 [7] [nM],IC50 [8] [nM],IC50 [9] [nM]
"CCNC(=O)c1c(OC)cc(-c2cnc3cc(-c4cnn(C)c4)ccn23)cc1OC(F)F [compound 116, 2-(difluoromethoxy)-N-ethyl-6-methoxy-4-[7-(1-methylpyrazol-4-yl)imidazo[1,2-a]pyridin-3-yl]benzamide]",++ (>1.5-4.5),0.1 to 100,0.01 to 10,0.01 to 10,0.01 to 10,0.1 to 100,,,
"COc1cc(-c2cnc3cc(-c4cnn(C)c4)ccn23)cc(OC)c1C(=O)N[C@@H](C)C(F)(F)F [compound 132, 2,6-dimethoxy-4-[7-(1-methylpyrazol-4-yl)imidazo[1,2-a]pyridin-3-yl]-N-[(1S)-2,2,2-trifluoro-1-methyl-ethyl]benzamide]",+ (≤1.5),100 to 1000,10 to 100,10 to 100,10 to 100,100 to 1000,,,
"COc1cc(-c2cnc3cc(-c4cnn(C)c4)cnn23)cc(OC)c1C(=O)NC1CC1 [compound 112, N-cyclopropyl-2,6-dimethoxy-4-[7-(1-methylpyrazol-4-yl)imidazo[1,2-b]pvridazin-3-yl]benzamide]",+ (≤1.5),0.1 to 100,0.01 to 10,0.01 to 10,0.01 to 10,0.1 to 100,,,
"CCNC(=O)c1c(OC)cc(-c2cnc3cc(-c4cc(C)no4)ccn23)cc1OC(F)F [compound 123, 2-(difluoromethoxy)-N-ethyl-6-methoxy-4-[7-(3-methylisoxazol-5-yl)imidazo[1,2-a]pyridin-3-yl]benzamide]",++ (>1.5-4.5),0.1 to 100,10 to 100,0.01 to 10,0.01 to 10,0.1 to 100,,,
"CCNC(=O)c1c(OC)cc(-n2cnc3cc(-c4cnn(C)c4)cnc32)cc1OC(F)F [compound 177, 2-(difluoromethoxy)-N-ethyl-6-methoxy-4-[6-(1-methylpyrazol-4-yl)imidazo[4,5-b]pyridin-3-yl]benzamide]",,100 to 1000,10 to 100,10 to 100,10 to 100,0.1 to 100,10 to 100,0.01 to 10,0.01 to 10
"COc1cc(-c2cnc3cc(-c4cnn(C)c4)ccn23)cc(F)c1C(=O)NCC(F)(F)F [compound 203, 2-fluoro-6-methoxy-4-[7-(1-methylpyrazol-4-yl)imidazo[1,2-a]pyridin-3-yl]-N-(2,2,2-trifluoroethyl)benzamide]",+++ (>4.5),0.1 to 100,10 to 100,0.01 to 10,0.01 to 10,0.1 to 100,,,
"CCN1Cc2cc(-c3cnc4cc(-c5cnn(C)c5)ccn34)cc(OC)c2C1=O [compound 176, 2-ethyl-7-methoxy-5-[7-(1-methylpyrazol-4-yl)imidazo[1,2-a]pyridin-3-yl]isoindolin-1-one]",,100 to 1000,10 to 100,10 to 100,10 to 100,0.1 to 100,10 to 100,0.01 to 10,0.01 to 10
"COc1cc(-c2cnc3cc(-c4cnn(C)c4)ccn23)cc(OC(F)F)c1C(=O)NC1CC1 [Cpd 124, N-cyclopropyl-2-(difluoromethoxy)-6-methoxy-4-[7-(1-methylpyrazol-4-yl)imidazo[1,2-a]pyridin-3-yl]benzamide]",++ (>1.5-4.5),0.1 to 100,0.01 to 10,0.01 to 10,0.01 to 10,0.1 to 100,,,
"COc1cc(-n2cnc3cc(-c4cnn(CCN5CCOCC5)c4)ccc32)cc(OC(F)F)c1C(=O)NC1CC1 [compound 56, N-cyclopropyl-2-(difluoromethoxy)-6-methoxy-4-[5-[1-(2-morpholinoethyl)pyrazol-4-yl]benzimidazol-1-yl]benzamide]",++ (>1.5-4.5),0.1 to 100,0.01 to 10,0.01 to 10,0.01 to 10,0.1 to 100,,,
"COCCn1cc(-c2ccc3c(c2)ncn3-c2cc(OC)c(C(=O)NCC(F)(F)F)c(OC)c2)cn1 [compound 84, 2,6-dimethoxy-4-[5-[1-(2-methoxyethyl)pyrazol-4-yl]benzimidazol-1-yl]-N-(2,2,2-trifluoroethyl)benzamide]",++ (>1.5-4.5),0.1 to 100,10 to 100,0.01 to 10,0.01 to 10,0.1 to 100,,,
"COc1cc(-n2cnc3cc(-c4cnn(C5CC5)c4)ccc32)cc(OC)c1C(=O)NCC(F)(F)F [compound 96, 4-[5-(l-cyclopropylpyrazol-4-yl)benzimidazol-1-yl]-2,6-dimethoxy-N-(2,2,2-trifluoroethyl)benzamide]",++ (>1.5-4.5),0.1 to 100,10 to 100,0.01 to 10,0.01 to 10,0.1 to 100,,,
"CCNC(=O)c1c(OC)cc(-n2cnc3cc(-c4cnn(CCN5CCOCC5)c4)ccc32)cc1OC(F)F [compound 57, 2-(difluoromethoxy)-N-ethyl-6-methoxy-4-[5-[1-(2-morpholinoethyl)pyrazol-4-yl]benzimidazol-1-yl]benzamide]",++ (>1.5-4.5),100 to 1000,10 to 100,0.01 to 10,0.01 to 10,0.1 to 100,,,
"COc1cc(-n2cnc3cc(-c4cnn(C)c4)ccc32)cc(OC)c1C(=O)NCC(F)F [compound 78, N-(2,2-difluoroethyl)-2,6-dimethoxy-4-[5-(1-methylpyrazol-4-yl)benzimidazol-1-yl]benzamide]",++ (>1.5-4.5),100 to 1000,10 to 100,0.01 to 10,0.01 to 10,0.1 to 100,,,
"COc1cc(-n2cnc3cc(-c4cnn(C5COC5)c4)ccc32)cc(OC)c1C(=O)NCC(F)(F)F [compound 85, 2,6-dimethoxy-4-[5-[1-(oxetan-3-yl)pyrazol-4-yl]benzimidazol-1-yl)-N-(2,2,2-trifluoroethyl)benzamide]",++ (>1.5-4.5),0.1 to 100,10 to 100,0.01 to 10,0.01 to 10,0.1 to 100,,,
"COc1cc(-c2cnc3cc(-c4cnn(C)c4)ccn23)cc(OC)c1C(=O)NCC#N [compound 122, N-(cyanomethyl)-2,6-dimethoxy-4-[7-(1-methylpyrazol-4-yl)imidazo[1,2-a]pyridin-3-yl]benzamide]",++ (>1.5-4.5),0.1 to 100,0.01 to 10,0.01 to 10,0.01 to 10,0.1 to 100,,,
"COc1cc(-c2cnc3cc(-c4cnn(C)c4)ccn23)cc(OC)c1C(=O)NC1CC1 [compound 102, N-cyclopropyl-2,6-dimethoxy-4-[7-(1-methylpyrazol-4-yl)imidazo[1,2-a]pyridin-3-yl]benzamide]",++ (>1.5-4.5),0.1 to 100,0.01 to 10,0.01 to 10,0.01 to 10,0.1 to 100,,,
"COc1cc(-c2cnn3cc(-c4cnn(C)c4)ccc23)cc(OC)c1C(=O)NCC(F)(F)F [compound 99, 2,6-dimethoxy-4-[6-(1-methylpyrazol-4-yl)pyrazolo[1,5-a]pyridin-3-yl]-N-(2,2,2-trifluorocthyl)benzamide]",,0.1 to 100,0.01 to 10,0.01 to 10,0.01 to 10,0.1 to 100,,,
"CCNC(=O)c1c(OC)cc(-c2cnc3cc(-c4cn(C)cn4)ccn23)cc1OC(F)F [compound 178, 2-(difluoromethoxy)-N-ethyl-6-methoxy-4-[7-(1-methylimidazol-4-yl)imidazo[1,2-a]pyridin-3-yl]benzamide]",++ (>1.5-4.5),0.1 to 100,10 to 100,0.01 to 10,0.01 to 10,0.1 to 100,,,
"COc1cc(-n2cnc3cc(-c4cnn(C)c4)ccc32)cc(OC)c1C(=O)NCC(F)(F)F [Cpd 25, 2,6-dimethoxy-4-[5-(1-methylpyrazol-4-yl)benzimidazol-1-yl]-N-(2,2,2-trifluoroethyl)benzamide]",++ (>1.5-4.5),0.1 to 100,10 to 100,0.01 to 10,0.01 to 10,0.1 to 100,,,
